Where “and” joins values, the source holds several entries; their conditions need not be identical. Identical values can stand only once. Inconclusive results and toxic doses are left out. No stated cut-off is given here; in the data, active means T/C of 150% or more; inactive means T/C below 125%.
Test system: L1210 leukemia ip in BDF1 mice, survival T/C
Assay: NCI In Vivo Anticancer Drug Screen. Data for tumor model L1210 Leukemia (intraperitoneal) in B6D2F1 (BDF1) mice
Conditions: endpoint: mean survival time, higher = longer survival
In short: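 In this screen, tumor-bearing mice given compound are compared to those given vehicle, and their survival values are reported as a treated-to-control quotient.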

[1] = dose: 25.0 mg/kg/injection, schedule: Q01DX009 (ip), vehicle: saline with Tween-80
[2] = dose: 50.0 mg/kg/injection, schedule: Q01DX009 (ip), vehicle: saline with Tween-80
[3] = dose: 100.0 mg/kg/injection, schedule: Q01DX009 (ip), vehicle: saline with Tween-80

Measured: T/C

CCN1C=C/C(=C\C=C/c2cc[n+](CC)c3ccccc23)c2ccccc21
inactive: dose: 0.05 mg/kg/injection, schedule: Q01DX Z (ip), vehicle: methylcellulose (MC) 96 % of control | dose: 0.06 mg/kg/injection, schedule: Q01DX Z (ip), vehicle: methylcellulose (MC) 106 % of control and 121 % of control | dose: 0.08 mg/kg/injection, schedule: Q01DX Z (ip), vehicle: methylcellulose (MC) 104 % of control | dose: 0.1 mg/kg/injection, schedule: Q01DX Z (ip), vehicle: methylcellulose (MC) 107 % of control | dose: 0.11 mg/kg/injection, schedule: Q01DX Z (ip), vehicle: methylcellulose (MC) 121 % of control | dose: 0.15 mg/kg/injection, schedule: Q01DX Z (ip), vehicle: methylcellulose (MC) 119 % of control | dose: 0.3 mg/kg/injection, schedule: Q01DX Z (ip), vehicle: methylcellulose (MC) 113 % of control and 120 % of control and 121 % of control | dose: 0.33 mg/kg/injection, schedule: Q01DX009 (ip), vehicle: saline with Tween-80 118 % of control | dose: 0.33 mg/kg/injection, schedule: Q03HX024 (ip), vehicle: saline with Tween-80 109 % of control | dose: 0.4 mg/kg/injection, schedule: Q01DX Z (ip), vehicle: methylcellulose (MC) 112 % of control | dose: 0.44 mg/kg/injection, schedule: Q01DX009 (ip), vehicle: saline with Tween-80 121 % of control | dose: 0.48 mg/kg/injection, schedule: Q01DX009 (ip), vehicle: saline with Tween-80 112 % of control | dose: 0.5 mg/kg/injection, schedule: Q01DX009 (ip), vehicle: saline 101 % of control | dose: 0.5 mg/kg/injection, schedule: Q04DX003 (ip), vehicle: saline sonified 107 % of control | dose: 0.67 mg/kg/injection, schedule: Q01DX001 (ip), vehicle: saline with Tween-80 105 % of control | dose: 0.67 mg/kg/injection, schedule: Q04DX003 (ip), vehicle: saline with Tween-80 105 % of control | dose: 0.7 mg/kg/injection, schedule: Q01DX Z (ip), vehicle: methylcellulose (MC) 96 % of control | dose: 0.74 mg/kg/injection, schedule: Q01DX009 (ip), vehicle: saline with Tween-80 114 % of control and 118 % of control | dose: 1.0 mg/kg/injection, schedule: Q01DX001 (ip), vehicle: saline with Tween-80 105 % of control | dose: 1.0 mg/kg/injection, schedule: Q01DX009 (ip), vehicle: saline 107 % of control | dose: 1.0 mg/kg/injection, schedule: Q01DX Z (ip), vehicle: methylcellulose (MC) 100 % of control | dose: 1.0 mg/kg/injection, schedule: Q04DX003 (ip), vehicle: saline sonified 110 % of control | dose: 1.1 mg/kg/injection, schedule: Q01DX009 (ip), vehicle: saline with Tween-80 105 % of control | dose: 1.5 mg/kg/injection, schedule: Q01DX001 (ip), vehicle: saline with Tween-80 112 % of control | dose: 1.5 mg/kg/injection, schedule: Q01DX Z (ip), vehicle: methylcellulose (MC) 108 % of control | dose: 1.5 mg/kg/injection, schedule: Q04DX003 (ip), vehicle: saline with Tween-80 113 % of control | dose: 2.0 mg/kg/injection, schedule: Q04DX003 (ip), vehicle: saline sonified 118 % of control | dose: 2.2 mg/kg/injection, schedule: Q01DX001 (ip), vehicle: saline with Tween-80 110 % of control | dose: 2.2 mg/kg/injection, schedule: Q04DX003 (ip), vehicle: saline with Tween-80 98 % of control | dose: 3.3 mg/kg/injection, schedule: Q01DX001 (ip), vehicle: saline with Tween-80 100 % of control and 88 % of control | dose: 7.4 mg/kg/injection, schedule: Q01DX001 (ip), vehicle: saline with Tween-80 105 % of control | dose: 67.0 micrograms/kg/injection, schedule: Q03HX024 (ip), vehicle: saline with Tween-80 102 % of control | dose: 100.0 micrograms/kg/injection, schedule: Q03HX024 (ip), vehicle: saline with Tween-80 101 % of control | dose: 150.0 micrograms/kg/injection, schedule: Q03HX024 (ip), vehicle: saline with Tween-80 104 % of control | dose: 220.0 micrograms/kg/injection, schedule: Q03HX024 (ip), vehicle: saline with Tween-80 97 % of control | dose: 330.0 micrograms/kg/injection, schedule: Q03HX024 (ip), vehicle: saline with Tween-80 102 % of control

O=C(Cn1ccc(O)cc1=O)N1CCOCC1
inactive: dose: 100.0 mg/kg/injection, schedule: Q01DX009 (ip), vehicle: water 105 % of control | dose: 100.0 mg/kg/injection, schedule: Q04DX003 (ip), vehicle: water 101 % of control | dose: 200.0 mg/kg/injection, schedule: Q01DX009 (ip), vehicle: water 100 % of control | dose: 200.0 mg/kg/injection, schedule: Q04DX003 (ip), vehicle: water 106 % of control | dose: 400.0 mg/kg/injection, schedule: Q01DX009 (ip), vehicle: water 103 % of control | dose: 400.0 mg/kg/injection, schedule: Q04DX003 (ip), vehicle: water 94 % of control

O=P(CCc1ccccc1)(OCCCl)OCCCl
inactive: dose: 100.0 mg/kg/injection, schedule: Q04DX002 (ip), vehicle: saline with Tween-80 99 % of control | dose: 200.0 mg/kg/injection, schedule: Q04DX002 (ip), vehicle: saline with Tween-80 96 % of control | dose: 400.0 mg/kg/injection, schedule: Q04DX002 (ip), vehicle: saline with Tween-80 92 % of control

CN(C)CCCc1c2ccccc2nc2ccc(Cl)cc12
inactive: dose: 12.0 mg/kg/injection, schedule: Q01DX009 (ip), vehicle: saline 98 % of control | dose: 25.0 mg/kg/injection, schedule: Q01DX009 (ip), vehicle: saline 101 % of control

O=C(O)c1cccc(F)c1C(=O)c1ccc2ccccc2c1
inactive: dose: 75.0 mg/kg/injection, schedule: Q01DX001 (ip), vehicle: carboxymethylcellulose (CMC) 96 % of control | dose: 100.0 mg/kg/injection, schedule: Q04DX003 (ip), vehicle: Klucel (hydroxypropylcellulose) (HPC) 97 % of control | dose: 150.0 mg/kg/injection, schedule: Q01DX001 (ip), vehicle: carboxymethylcellulose (CMC) 95 % of control | dose: 200.0 mg/kg/injection, schedule: Q04DX003 (ip), vehicle: Klucel (hydroxypropylcellulose) (HPC) 105 % of control | dose: 300.0 mg/kg/injection, schedule: Q01DX001 (ip), vehicle: carboxymethylcellulose (CMC) 93 % of control

CCC(=O)C(CCN1CCC(n2c(=O)[nH]c3ccccc32)CC1)(c1ccccc1)c1ccccc1
inactive: dose: 0.2 mg/kg/injection, schedule: Q01DX009 (ip), vehicle: saline with Tween-80 90 % of control | dose: 0.4 mg/kg/injection, schedule: Q01DX009 (ip), vehicle: saline with Tween-80 89 % of control | dose: 0.78 mg/kg/injection, schedule: Q01DX009 (ip), vehicle: saline with Tween-80 88 % of control | dose: 0.8 mg/kg/injection, schedule: Q01DX009 (ip), vehicle: saline with Tween-80 104 % of control | dose: 3.13 mg/kg/injection, schedule: Q01DX009 (ip), vehicle: saline with Tween-80 98 % of control | dose: 6.25 mg/kg/injection, schedule: Q01DX009 (ip), vehicle: saline with Tween-80 93 % of control and 89 % of control | dose: 12.5 mg/kg/injection, schedule: Q01DX009 (ip), vehicle: saline with Tween-80 95 % of control | [1] 90 % of control | [2] 86 % of control | [3] 96 % of control and 92 % of control

CCCCCCCCC[n+]1cccc(C(=O)c2ccccc2)c1
inactive: dose: 9.38 mg/kg/injection, schedule: Q01DX001 (ip), vehicle: saline 98 % of control | dose: 18.75 mg/kg/injection, schedule: Q01DX001 (ip), vehicle: saline 100 % of control | dose: 37.5 mg/kg/injection, schedule: Q01DX001 (ip), vehicle: saline 105 % of control

CCCCCC/C(=N/NC(N)=O)C(OC)OC
inactive: dose: 100.0 mg/kg/injection, schedule: Q01DX001 (ip), vehicle: other 94 % of control | dose: 200.0 mg/kg/injection, schedule: Q01DX001 (ip), vehicle: other 105 % of control | dose: 400.0 mg/kg/injection, schedule: Q01DX001 (ip), vehicle: other 100 % of control

O=Cc1nccc2c1[nH]c1ccccc12
inactive: [1] 96 % of control | [2] 97 % of control | [3] 86 % of control and 90 % of control

Cc1cc2nc(Cc3ccccc3)[nH]c2cc1C
inactive: [2] 90 % of control

O=C(COc1ccc(Cl)c(Cl)c1)N(Cc1ccccc1)Cc1ccc[n+](Cc2cccc(Cl)c2S(=O)(=O)F)c1
inactive: dose: 25.0 mg/kg/injection, schedule: Q04DX003 (ip), vehicle: saline with Tween-80 106 % of control | dose: 50.0 mg/kg/injection, schedule: Q04DX003 (ip), vehicle: saline with Tween-80 96 % of control

NC(=O)/C(=C\c1ccc([N+](=O)[O-])o1)c1ccccc1
inactive: dose: 100.0 mg/kg/injection, schedule: Q01DX001 (ip), vehicle: Klucel (hydroxypropylcellulose) (HPC) 96 % of control | dose: 200.0 mg/kg/injection, schedule: Q01DX001 (ip), vehicle: Klucel (hydroxypropylcellulose) (HPC) 93 % of control | dose: 400.0 mg/kg/injection, schedule: Q01DX001 (ip), vehicle: Klucel (hydroxypropylcellulose) (HPC) 96 % of control

— PubChem BioAssay AID248 (DTP/NCI, 2004)
